Measurements reported in ChEMBL document CHEMBL1149795, “5,7-Dihydroxychromone-2-carboxylic acid and it's transition-metal (Mn and Zn) chelates as non-thiol radioprotective agents” (Eur J Med Chem, 2008).

Columns and labels:
[1] = Toxicity against sc dosed NMRI mouse; assay type: organism-based; details: in vivo
Mus musculus [2] = test: Radioprotective activity against gamma-irradiation in NMRI mouse assessed as survival at 0.5 mmol/kg, sc administered 24 hrs prior to irradiation measured after 30 days; assay type: functional; details: light or radiation study
Mus musculus [3] = test: Radioprotective activity against gamma-irradiation in NMRI mouse assessed as survival at 1.0 mmol/kg, sc administered 24 hrs prior to irradiation measured after 30 days; assay type: functional; details: light or radiation study
Mus musculus [4] = test: Radioprotective activity against gamma-irradiation in NMRI mouse assessed as survival at 0.5 mmol/kg, sc administered 1 hr prior to irradiation measured after 30 days; assay type: functional; details: light or radiation study

Row | SMILES | LD50 [1] [mg/kg] | survival at 500 µmol/kg (Mus musculus [2]) [%] | survival at 1000 µmol/kg (Mus musculus [3]) [%] | survival at 500 µmol/kg (Mus musculus [4]) [%]
1 | O=C(O)c1cc(=O)c2c(O)cc(O)cc2o1 | > 1500 | 35 | 50 | 
2 | NCCCNCCSP(=O)(O)O [AMIFOSTINE] | 609 |  |  | 81
